Assay results from patent publication US12350252B2, “Water-soluble cannabinoid formulations and methods of their making” (SOLUSCIENCE, LLC, priority 2019, dated 2025).

Experiment: Accelerated stability study of 2% CBD colloidal dispersion (cannabinoid profile, appearance, pH, microbial growth)
Type: physicochemical
Method: The solid dispersion included 20% CBD, 75% of Poloxamer 407 and 5% ascorbic acid was dissolved in distilled water to produce the homogenic, stable colloidal dispersion of cannabidiol at 2% (20 mg/mL) by weight of the formulation.

[1] = Day # 0, content in colloidal dispersion of cannabidiol at 2% (20 mg/mL)
[2] = Day # 90, stored at 100° F. (38° C.), content in colloidal dispersion of cannabidiol at 2%

Row | SMILES | Cannabinoid profile Result [1] [mg/g] | Cannabinoid profile Result (%) [1] [%] | Cannabinoid profile Result [2] [mg/g] | Cannabinoid profile Result (%) [2] [%]
1 | C=C(C)[C@@H]1CCC(C)=C[C@H]1c1c(O)cc(CCCCC)cc1O [Cannabidiol (CBD), Cannabidiol] | 20.2 | 2.02 | 21.9 | 2.19
2 | CCCCCc1cc(O)c(C/C=C(\C)CCC=C(C)C)c(O)c1 [Cannabigerol (CBG), Cannabigerol] | 0.3 | 0.03 | – | –
3 | CCCCCc1cc(O)c2c(c1)OC(C)(C)c1ccc(C)cc1-2 [Cannabinol (CBN), Cannabinol] | 0.3 | 0.03 | – | –
